Values joined by “and” are separate entries in the source; they are usually repeats but may differ in a detail not shown here. Identical values can stand only once. ± gives the expanded uncertainty stated by the source.
Columns and labels:
[1] = for Normal melting temperature: Crystal, DTA; for mass density: 298.15 K, 101.33 kPa, Liquid, Vibrating tube method
[2] = Molar enthalpy of transition or fusion; conditions: Crystal; DSC

Question: What does the source list for `CC(=O)Oc1ccccc1C(=O)O` [2-acetoxybenzoic acid]?
Answer: Normal melting temperature [1]: 135.50 ± 0.7 °C; Molar enthalpy of transition or fusion [2]: 8.01 ± 0.174 kcal/mol

Question: Which Normal melting temperature [1] does the source give for `CC(=O)Nc1ccc(O)cc1` [N-acetyl-p-aminophenol] here?
Answer: Its Normal melting temperature is 169.20 ± 0.7 °C.

Question: What about the “Molar enthalpy of transition or fusion” value [2] of the same compound?
Answer: Its value is 6.57 ± 0.146 kcal/mol.

Question: For `CCO` [ethanol], which mass density [1] is on record?
Answer: The mass density was 785.02 ± 0.12 kg/m3.

Question: For `NC(N)=Nc1nc(CSCC/C(N)=N/S(N)(=O)=O)cs1` [famotidine], which “Molar enthalpy of transition or fusion” value [2] is on record?
Answer: Its value is 11.5 kcal/mol and 12 kcal/mol.

Question: Which Normal melting temperature [1] does the source give for `N=C(N)N` [guanidine] here?
Answer: Its Normal melting temperature is 141.00 ± 0.7 °C.

Question: And the “Molar enthalpy of transition or fusion” value [2]?
Answer: Its value is 8.48 ± 0.184 kcal/mol.

Question: For `CO` [methanol], which mass density [1] is on record?
Answer: Its mass density is 786.59 ± 0.12 kg/m3.

Question: Which mass density [1] does the source give for `CCCCCCCCO` [octan-1-ol] here?
Answer: Its mass density is 821.6 ± 0.11 kg/m3.

Question: With `CC(C)O` [propan-2-ol] as the compound, how does the mass density [1] read?
Answer: The mass density was 780.8 ± 0.13 kg/m3.

Reference: the NIST ThermoML archive (doi:10.1016/j.fluid.2015.07.032)
